# Test results reported in ChEMBL document CHEMBL1201862, “PubChem BioAssay data set” (2004).
#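 Values below derive from 48-hour exposures of cells grown in 96-well plates, with endpoints linearly interpolated between the two concentrations bracketing the appropriate inhibition level. At the GI50, growth is halved.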 Active and inactive are the calls of the source. Cut-off read from the data, not from the text of the source: active = GI50 up to about 1.1 µM and inactive = higher.
# Assays:
# Test in all cases: DTP human tumour cell line panel, 48 h
# KM12 = system: KM12
# MOLT-4 = system: MOLT-4
# SF-268 = system: SF-268
# TK-10 = system: TK-10
# Malme-3M = system: Malme-3M
# MDA-N = system: MDA-N
# CCRF-CEM = system: CCRF-CEM
# RPMI-8226 = system: RPMI-8226
# SK-MEL-2 = system: SK-MEL-2
# PC-3 = system: PC-3
# HCT-15 = system: HCT-15
# OVCAR-8 = system: OVCAR-8
# BT-549 = system: BT-549
# A498 = system: A498
# HT-29 = system: HT-29
# SNB-75 = system: SNB-75
# HCT-116 = system: HCT-116
# RXF 393 = system: RXF 393
# OVCAR-3 = system: OVCAR-3
Compound,GI50 (KM12),GI50 (MOLT-4),GI50 (SF-268),GI50 (TK-10),GI50 (Malme-3M),GI50 (MDA-N),GI50 (CCRF-CEM),GI50 (RPMI-8226),GI50 (SK-MEL-2),GI50 (PC-3),GI50 (HCT-15),GI50 (OVCAR-8),GI50 (BT-549),GI50 (A498),GI50 (HT-29),GI50 (SNB-75),GI50 (HCT-116),GI50 (RXF 393),GI50 (OVCAR-3)
NC(=O)NC(=O)Nc1ccc(Br)cc1,21.8 µM (inactive),3.78 µM (inactive),> 6.93 µM (inactive),> 35.9 µM (inactive),> 15.8 µM (inactive),50.9 µM (inactive),> 4.65 µM (inactive),10.3 µM (inactive),13.2 µM (inactive),23.9 µM (inactive),28 µM,> 13.7 µM (inactive),> 20 µM (inactive),9.79 µM (inactive),3.46 µM (inactive),3.19 µM (inactive),17.3 µM (inactive),,
Cc1cc(S(=O)(=O)Nc2nc3cc(-c4ccc(Cl)cc4)sc3c(=O)n2N)c(S)cc1Cl,34.2 µM (inactive),21.3 µM (inactive),86.3 µM (inactive),73.6 µM (inactive),> 100 µM (inactive),53.8 µM (inactive),27.2 µM (inactive),> 100 µM (inactive),75.2 µM (inactive),63.2 µM (inactive),45.6 µM,50.2 µM (inactive),> 100 µM (inactive),,54.5 µM (inactive),> 100 µM (inactive),40.3 µM (inactive),37.2 µM (inactive),> 100 µM (inactive)
CCc1n[nH]c(=O)n1NC(=O)c1ccccc1C(=O)O,> 100 µM (inactive),> 100 µM (inactive),> 100 µM (inactive),> 100 µM (inactive),,> 100 µM (inactive),> 100 µM (inactive),> 100 µM (inactive),> 100 µM (inactive),> 100 µM (inactive),> 100 µM,> 100 µM (inactive),> 100 µM (inactive),,> 100 µM (inactive),> 100 µM (inactive),> 100 µM (inactive),> 100 µM (inactive),> 100 µM (inactive)
O=C(c1ccccc1)N1CCN(C(=S)N(C(=O)c2ccccc2)c2ccccc2)C1=S,5.71 µM (inactive),1.89 µM (inactive),3.45 µM (inactive),5.83 µM (inactive),5.13 µM (inactive),4.18 µM (inactive),2.56 µM (inactive),0.914 µM (active),7.41 µM (inactive),6.59 µM (inactive),2.18 µM,3.13 µM (inactive),3.85 µM (inactive),4.02 µM (inactive),5.42 µM (inactive),2.16 µM (inactive),3.4 µM (inactive),,4.21 µM (inactive)
CCN(CC)COC(=S)S,> 76.2 µM (inactive),22.3 µM (inactive),> 78 µM (inactive),> 54 µM (inactive),55.8 µM (inactive),> 63.2 µM (inactive),0.0162 µM (active),,1.82 µM (inactive),33.3 µM (inactive),> 100 µM,42.4 µM (inactive),> 94.6 µM (inactive),> 100 µM (inactive),39 µM (inactive),30.5 µM (inactive),40.4 µM (inactive),,0.0516 µM (active)
CC1C(c2ccccc2)O[B-](F)(c2ccccc2)[NH+]1C (stereo not given),,> 100 µM (inactive),> 100 µM (inactive),> 100 µM (inactive),> 100 µM (inactive),> 100 µM (inactive),> 100 µM (inactive),> 100 µM (inactive),,> 100 µM (inactive),> 100 µM,> 100 µM (inactive),> 100 µM (inactive),> 100 µM (inactive),> 100 µM (inactive),37.2 µM (inactive),> 100 µM (inactive),,> 100 µM (inactive)
COC/C=C\[C@@]1(O)CCCC[C@@H]1CC(OC)OC,31 µM (inactive),9.46 µM (inactive),30.2 µM (inactive),> 100 µM (inactive),77.4 µM (inactive),33.7 µM (inactive),19.2 µM (inactive),22.8 µM (inactive),> 100 µM (inactive),49.5 µM (inactive),27.4 µM,29.9 µM (inactive),64 µM (inactive),,> 59.6 µM (inactive),60 µM (inactive),22.7 µM (inactive),> 54.3 µM (inactive),54.5 µM (inactive)
COC(=O)[C@@H]1C[C@@H]2c3ccccc3N(S(=O)(=O)c3ccccc3)[C@@H]2N1C(=O)OC,> 100 µM (inactive),> 100 µM (inactive),> 100 µM (inactive),> 100 µM (inactive),> 100 µM (inactive),> 100 µM (inactive),> 100 µM (inactive),> 100 µM (inactive),> 100 µM (inactive),> 100 µM (inactive),> 100 µM,> 100 µM (inactive),> 100 µM (inactive),,> 100 µM (inactive),> 100 µM (inactive),> 100 µM (inactive),> 100 µM (inactive),> 100 µM (inactive)
COc1ccc2cc1Oc1ccc(cc1)CC1c3cc(OC)c(cc3CCN1C)Oc1c(OC)c(OC)cc3c1C(C2)N(C)CC3 (stereo not given),12.7 µM (inactive),10.4 µM (inactive),12.9 µM (inactive),10.8 µM (inactive),11.4 µM (inactive),10.5 µM (inactive),17.7 µM (inactive),,12.8 µM (inactive),11.9 µM (inactive),9.06 µM,12.4 µM (inactive),10.8 µM (inactive),10.6 µM (inactive),8.79 µM (inactive),8.63 µM (inactive),19.1 µM (inactive),,
CC(C)(C)OC/C=C(/CO)[C@@H]1C=C[C@H](O)C1,> 100 µM (inactive),> 100 µM (inactive),> 100 µM (inactive),,> 100 µM (inactive),> 100 µM (inactive),> 100 µM (inactive),> 100 µM (inactive),> 100 µM (inactive),> 100 µM (inactive),> 100 µM,,> 100 µM (inactive),> 100 µM (inactive),> 100 µM (inactive),> 100 µM (inactive),> 100 µM (inactive),,> 100 µM (inactive)
C[C@]12CC/C(=N\O)C=C1CC[C@@H]1[C@@H]2CC[C@]2(C)C(=N/O)/C(=C/c3ccncc3)C[C@@H]12,17.3 µM (inactive),18.8 µM (inactive),28.7 µM (inactive),36.1 µM (inactive),37.5 µM (inactive),21.7 µM (inactive),,6.85 µM (inactive),15 µM (inactive),14 µM (inactive),5.48 µM,24.6 µM (inactive),36.1 µM (inactive),,11.5 µM (inactive),25.5 µM (inactive),10 µM (inactive),24.3 µM (inactive),20 µM (inactive)
COc1cc(S(=O)(=O)Nc2ccc(-c3csc(N4C(=O)C(C)SC4c4ccccc4O)n3)cc2)ccc1Cl (stereo not given),29.7 µM (inactive),27.1 µM (inactive),21.3 µM (inactive),,17.9 µM (inactive),28.6 µM (inactive),25.9 µM (inactive),32.1 µM (inactive),42 µM (inactive),29.9 µM (inactive),36.9 µM,40.9 µM (inactive),27 µM (inactive),> 100 µM (inactive),56.9 µM (inactive),28.8 µM (inactive),30.1 µM (inactive),,69.5 µM (inactive)
